Structures can show the parent of a compound that is named as a salt.

For one experiment, the target named is AaDOP2 (Aedes aegypti, UniProt H6D5H2). Briefly: AaDOP2 antagonist screen of the LOPAC1280 library (HEK-CRELuc-Aadop2 cells, luminescence). In kind it is cell-based.
AaDOP2, sequence (H6D5H2 1-476): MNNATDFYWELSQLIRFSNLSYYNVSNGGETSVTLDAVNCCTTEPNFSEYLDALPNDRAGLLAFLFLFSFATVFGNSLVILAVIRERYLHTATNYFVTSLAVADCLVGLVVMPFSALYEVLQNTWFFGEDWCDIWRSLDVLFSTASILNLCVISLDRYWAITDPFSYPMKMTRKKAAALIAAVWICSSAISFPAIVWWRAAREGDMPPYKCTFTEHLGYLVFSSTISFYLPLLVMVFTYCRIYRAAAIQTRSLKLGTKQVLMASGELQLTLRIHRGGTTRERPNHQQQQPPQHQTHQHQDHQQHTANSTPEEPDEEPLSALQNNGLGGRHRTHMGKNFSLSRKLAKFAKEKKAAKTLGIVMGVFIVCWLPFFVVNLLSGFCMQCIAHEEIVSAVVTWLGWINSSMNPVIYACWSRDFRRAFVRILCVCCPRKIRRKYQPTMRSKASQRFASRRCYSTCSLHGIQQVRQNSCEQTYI
Conditions: not given
In the case of “2-Methylthioadenosine diphosphate trisodium [Compound 826]”, the “Compound effect (percent receptor signaling in presence of test compound, relative lux units relative to the SCH23390 control)” value is given as 92.
On the same count and under the same terms, next, “2-Methylthioadenosine triphosphate tetrasodium [Compound 120]”: 99; “17alpha-hydroxyprogesterone [Compound 593]”: 83.
Still for that read-out and setting: next, `CCOC(=O)[C@]12CC1/C(=N\O)c1ccccc1O2` (mixture of isomers) [Compound 318, CPCCOEt]: 58.
Consider `CC(N)(Cc1ccc(O)cc1)C(=O)O` (racemic) [Compound 1, DL-alpha-Methyl-p-tyrosine], for which the “Compound effect (percent receptor signaling in presence of test compound, relative lux units relative to the SCH23390 control)” value turned out to be 95.
Take `O=C(O)C1CCCNC1` (racemic) [Compound 5, (±)-Nipecotic acid]: the “Compound effect (percent receptor signaling in presence of test compound, relative lux units relative to the SCH23390 control)” value was found to be 99.
On the same count and under the same terms, next, `NC(CCP(=O)(O)O)C(=O)O` (racemic) [Compound 31, (±)-2-Amino-4-phosphonobutyric acid]: 124.
In the case of `NC(CP(=O)(O)O)C(=O)O` (racemic) [Compound 55, (±)-2-Amino-3-phosphonopropionic acid], the “Compound effect (percent receptor signaling in presence of test compound, relative lux units relative to the SCH23390 control)” value is 102.
Consider `NC(CCCCCP(=O)(O)O)C(=O)O` (racemic) [Compound 57, (±)-2-Amino-7-phosphonoheptanoic acid], for which the “Compound effect (percent receptor signaling in presence of test compound, relative lux units relative to the SCH23390 control)” value amounted to 93.
On the same count and under the same terms, with `CCC1(c2ccc(N)cc2)CCC(=O)NC1=O` (racemic) [Compound 109, (±)-p-Aminoglutethimide] the figure was 106; with `NC1CCN(O)C1=O` (racemic) [Compound 110, (±)-HA-966], 107; with `C=CCN1CC[C@@]2(C)c3cc(O)ccc3C[C@@H]1[C@@H]2C.Cl` (racemic) [Compound 131, (±)-N-Allylnormetazocine hydrochloride], 105.
Still for that read-out and setting: with `CCCCS(=N)(=O)CCC(N)C(=O)O` (racemic) [Compound 168, DL-Buthionine-[S,R]-sulfoximine] the figure was 77.
Still for that read-out and setting: with `COC(=O)C1=C(C)NC(C)=C([N+](=O)[O-])C1c1ccccc1C(F)(F)F` (racemic) [Compound 203, (±)-Bay K 8644] the figure was 73.
Regarding `CN(C)CCC(c1ccc(Cl)cc1)c1ccccn1.O=C(O)/C=C\C(=O)O` (racemic) [Compound 243, (±)-Chlorpheniramine maleate], the “Compound effect (percent receptor signaling in presence of test compound, relative lux units relative to the SCH23390 control)” value was determined as 77.
On the same count and under the same terms, next, `O=C(O)C1CN(CCCP(=O)(O)O)CCN1` (racemic) [Compound 329, (±)-CPP]: 91.
For `Oc1cc2c(cc1O)[C@H]1c3ccccc3CN[C@@H]1CC2` (racemic) [Compound 398, Dihydrexidine hydrochloride], the “Compound effect (percent receptor signaling in presence of test compound, relative lux units relative to the SCH23390 control)” value was found to be 110.
Still for that read-out and setting: with `Cl.Oc1cc2c(cc1O)C(c1ccccc1)CNCC2` (racemic) [Compound 444, (±)-SKF-38393 hydrochloride] the figure was 101.
Still for that read-out and setting: with `COc1cc(CC(C)N)c(OC)cc1I.Cl` (racemic) [Compound 447, (±)-DOI hydrochloride] the figure was 86; with `CC(N)c1cccc(Cl)c1Cl.Cl` (racemic) [Compound 448, (±)-2,3-Dichloro-alpha-methylbenzylamine hydrochloride], 84; with `CCCCCCCCCCCCCCCC(=O)NCC(COP(=O)([O-])OCC[N+](C)(C)C)OCC` (racemic) [Compound 488, rac-2-Ethoxy-3-hexadecanamido-1-propylphosphocholine], 42.
On the same count and under the same terms, next, `CCCCCCCCCCCCCCCCCC(=O)NCC(COP(=O)([O-])OCC[N+](C)(C)C)OCC` (racemic) [Compound 489, rac-2-Ethoxy-3-octadecanamido-1-propylphosphocholine]: 65; `COc1cc(C(O)C(=O)O)ccc1O` (racemic) [Compound 573, (±)-Vanillylmandelic acid]: 115.
In the case of `NC(Cc1cc(O)c(O)cc1O)C(=O)O` (racemic) [Compound 584, 6-Hydroxy-DL-DOPA], the “Compound effect (percent receptor signaling in presence of test compound, relative lux units relative to the SCH23390 control)” value turned out to be 101.
For the compound `N[C@H](C(=O)O)c1cc(O)no1` (racemic) [Compound 642, (±)-Ibotenic acid], the “Compound effect (percent receptor signaling in presence of test compound, relative lux units relative to the SCH23390 control)” value worked out at 105.
On to `CC(C)Cc1ccc(C(C)C(=O)O)cc1` (racemic) [Compound 646, (±)-Ibuprofen], for which the “Compound effect (percent receptor signaling in presence of test compound, relative lux units relative to the SCH23390 control)” value came out at 98.
Still for that read-out and setting: next, `COC(=O)C(C)(N)Cc1ccc(O)cc1.Cl` (racemic) [Compound 759, alpha-Methyl-DL-tyrosine methyl ester hydrochloride]: 101; `COCCc1ccc(OCC(O)CNC(C)C)cc1.COCCc1ccc(OCC(O)CNC(C)C)cc1.O=C(O)C(O)C(O)C(=O)O` (racemic) [Compound 777, (±)-Metoprolol (+)-tartrate]: 98.

The experiment is the same for the next values; noted with them: 10 µM compound, 300 nM dopamine, 2 hr; hit = compound effect <20.
For `NC[C@H](O)c1ccc(O)c(O)c1.O=C(O)C(O)C(O)C(=O)O` (racemic) [Compound 22, (±)-Norepinephrine (+)bitartrate], the “Compound effect (percent receptor signaling in presence of test compound, relative lux units relative to the SCH23390 control)” value is listed as 102%.
Still for that read-out and setting: with `NC(CCCP(=O)(O)O)C(=O)O` (racemic) [Compound 58, (±)-2-Amino-5-phosphonopentanoic acid] the figure was 89%; with `N[C@@]1(C(=O)O)CC[C@@H](C(=O)O)C1` (racemic) [Compound 130, trans-(±)-ACPD], 116%; with `CN(C)CCC(c1ccc(Br)cc1)c1ccccn1.O=C(O)/C=C\C(=O)O` (racemic) [Compound 165, (±)-Brompheniramine maleate], 63%.
On the same count and under the same terms, with `NCC(CC(=O)O)c1ccc(Cl)cc1` (racemic) [Compound 177, (±)-Baclofen] the figure was 111%; with `COC(=O)C(N)Cc1ccc(Cl)cc1.Cl` (racemic) [Compound 248, DL-p-Chlorophenylalanine methyl ester hydrochloride], 71%; with `NC(Cc1ccc(Cl)cc1)C(=O)O` (racemic) [Compound 285, (±)-p-Chlorophenylalanine], 62%.
Still for that read-out and setting: next, `NC1CONC1=O` (racemic) [Compound 291, DL-Cycloserine]: 94%; `CC(C)(C)NCC(O)COc1cccc2[nH]c(=O)[nH]c12.Cl` (racemic) [Compound 334, (±)-CGP-12177A hydrochloride]: 97%; `Br.C=CCN1CCc2c(cc(O)c(O)c2Cl)C(c2ccccc2)C1` (racemic) [Compound 336, (±)-Chloro-APB hydrobromide]: 77%.
As for `CCCCCCCCCCCCCCC[C@H](O)[C@H](N)CO` (racemic) [Compound 406, DL-erythro-Dihydrosphingosine], the “Compound effect (percent receptor signaling in presence of test compound, relative lux units relative to the SCH23390 control)” value stood at 88%.
Regarding `Cl.NCCCC(N)(C(=O)O)C(F)F` (racemic) [Compound 467, DL-alpha-Difluoromethylornithine hydrochloride], the “Compound effect (percent receptor signaling in presence of test compound, relative lux units relative to the SCH23390 control)” value came out at 94%.
On to `Br.Cc1o[nH]c(=O)c1CC(N)C(=O)O` (racemic) [Compound 563, (±)-AMPA hydrobromide], for which the “Compound effect (percent receptor signaling in presence of test compound, relative lux units relative to the SCH23390 control)” value amounted to 101%.
On the same count and under the same terms, with `NC(C(=O)O)C(O)C(=O)O` (racemic) [Compound 585, DL-threo-beta-hydroxyaspartic acid] the figure was 118%; with `Br.CCCN(CCC)C1CCc2cccc(O)c2C1` (racemic) [Compound 602, (±)-8-Hydroxy-DPAT hydrobromide], 102%; with `Br.CCCN(CCC)C1CCc2ccc(O)cc2C1` (racemic) [Compound 606, (±)-7-Hydroxy-DPAT hydrobromide], 62%.
On the same count and under the same terms, with `CC(N)(C(=O)O)c1ccc(C(=O)O)cc1` (racemic) [Compound 771, (±)-alpha-Methyl-4-carboxyphenylglycine] the figure was 108%; with `COc1ccc(CCN(C)CCCC(C#N)(c2cc(OC)c(OC)c(OC)c2)C(C)C)cc1OC.Cl` (racemic) [Compound 782, (±)-Methoxyverapamil hydrochloride], 88%.

For the origin of these results see PMC3265452 (PLoS Neglected Tropical Diseases, 2012).
